Measurements reported in patent publication US20230312577A1, “DUAL KINASE-BROMODOMAIN INHIBITORS” (MONASH UNIVERSITY, priority 2020, published 2023).

Test system: OPM2 cells
Test: Cell proliferation assay (ViaLight, cellular ATP)
Type: cell-based
Conditions: Homo sapiens, OPM-2, 120 h, 5 days, 5 μM to 1 nM
Protocol: OPM2 cells (1×10^3) were plated in a 96 well plate. Test compounds were added to cells at final concentrations ranging from 5 μM to 1 nM. They were incubated for 5 days before they were analysed using ViaLight luminescence-based proliferation assays which detect cellular ATP, as per the manufacturer's instructions. All samples were prepared in technical triplicates. Data analysis was performed in GraphPad Prism version 7.00 for Mac OS X, (GraphPad Software, San Diego California USA) in order to calculate the GI50.

Row | SMILES | GI50
1 | CC(=O)N1c2ccc(-c3cccc(CNC(=O)c4cn5cc(-c6cnc(N)nc6)nc(N6CCOCC6)c5n4)c3)cc2CC[C@@H]1C [Cpd 011, (S)-N-(3-(1-acetyl-2-methyl-1,2,3,4-tetrahydroquinolin-6-yl)benzyl)-6-(2-aminopyrimidin-5-yl)-8-morpholinoimidazo[1,2-a]pyrazine-2-carboxamide] | 100 to 500 nM
2 | CC(=O)N1c2ccc(-c3ccc(C(=O)NCCNC(=O)c4cn5cc(-c6cnc(N)nc6)nc(N6CCOCC6)c5n4)cc3)cc2CC[C@@H]1C [Cpd 012, (S)-N-(2-(4-(1-Acetyl-2-methyl-1,2,3,4-tetrahydroquinolin-6-yl)benzamido)ethyl)-6-(2-aminopyrimidin-5-yl)-8-morpholinoimidazo[1,2-a]pyrazine-2-carboxamide] | ≤ 100 nM
3 | CC(=O)N1c2ccc(-c3ccc(C(=O)N4CCN(Cc5cn6cc(-c7cnc(N)nc7)nc(N7CCOCC7)c6n5)CC4)cc3)cc2CC[C@@H]1C [Cpd 014, (S)-1-(6-(4-(4-((6-(2-Aminopyrimidin-5-yl)-8-morpholinoimidazo[1,2-a]pyrazin-2-yl)methyl)piperazine-1-carbonyl)phenyl)-2-methyl-3,4-dihydroquinolin-1(2H)-yl)ethan-1-one] | 100 to 500 nM
4 | CC(=O)N1c2ccc(-c3ccc(CN4CCN(Cc5cn6cc(-c7cnc(N)nc7)nc(N7CCOCC7)c6n5)CC4)cc3)cc2CC[C@@H]1C [Cpd 015, (S)-1-(6-(4-((4-((6-(2-Aminopyrimidin-5-yl)-8-morpholinoimidazo[1,2-a]pyrazin-2-yl)methyl)piperazin-1-yl)methyl)phenyl)-2-methyl-3,4-dihydroquinolin-1(2H)-yl)ethan-1-one] | 100 to 500 nM
5 | CC(=O)N1c2ccc(-c3ccc(C(=O)NCc4cn5cc(-c6cnc(N)nc6)nc(N6CCOCC6)c5n4)cc3)cc2CC[C@@H]1C [Cpd 016, (S)-4-(1-Acetyl-2-methyl-1,2,3,4-tetrahydroquinolin-6-yl)-N-((6-(2-aminopyrimidin-5-yl)-8-morpholinoimidazo[1,2-a]pyrazin-2-yl)methyl)benzamide] | 100 to 500 nM
6 | CC(=O)N1c2ccc(-c3cccc(C(=O)NCc4cn5cc(-c6cnc(N)nc6)nc(N6CCOCC6)c5n4)c3)cc2CC[C@@H]1C [Cpd 017, (S)-3-(1-Acetyl-2-methyl-1,2,3,4-tetrahydroquinolin-6-yl)-N-((6-(2-aminopyrimidin-5-yl)-8-morpholinoimidazo[1,2-a]pyrazin-2-yl)methyl)benzamide] | 100 to 500 nM
7 | CC(=O)N1c2ccc(-c3ccc(CC(=O)NCc4cn5cc(-c6cnc(N)nc6)nc(N6CCOCC6)c5n4)cc3)cc2CC[C@@H]1C [Cpd 018, (S)-2-(4-(1-Acetyl-2-methyl-1,2,3,4-tetrahydroquinolin-6-yl)phenyl)-N-((6-(2-aminopy-rimidin-5-yl)-8-morpholinoimidazo[1,2-a]pyrazin-2-yl)methyl)acetamide] | 100 to 500 nM
8 | CC(=O)N1c2ccc(-c3cccc(CC(=O)NCc4cn5cc(-c6cnc(N)nc6)nc(N6CCOCC6)c5n4)c3)cc2CC[C@@H]1C [Cpd 019, (S)-2-(3-(1-Acetyl-2-methyl-1,2,3,4-tetrahydroquinolin-6-yl)phenyl)-N-((6-(2-aminopy-rimidin-5-yl)-8-morpholinoimidazo[1,2-a]pyrazin-2-yl)methyl)acetamide] | 100 to 500 nM
9 | CC(=O)N1c2ccc(-c3ccc(NC(=O)Cc4cn5cc(-c6cnc(N)nc6)nc(N6CCOCC6)c5n4)cc3)cc2CC[C@@H]1C [Cpd 022, (S)-N-(4-(1-acetyl-2-methyl-1,2,3,4-tetrahydroquinolin-6-yl)phenyl)-2-(6-(2-aminopyrimidin-5-yl)-8-morpholinoimidazo[1,2-a]pyrazin-2-yl)acetamide] | ≤ 100 nM
10 | CC(=O)N1c2ccc(-c3cccc(NC(=O)Cc4cn5cc(-c6cnc(N)nc6)nc(N6CCOCC6)c5n4)c3)cc2CC[C@@H]1C [Cpd 023, (S)-N-(3-(1-acetyl-2-methyl-1,2,3,4-tetrahydroquinolin-6-yl)phenyl)-2-(6-(2-aminopyrimidin-5-yl)-8-morpholinoimidazo[1,2-a]pyrazin-2-yl)acetamide] | 100 to 500 nM
11 | CC(=O)N1c2ccc(-c3ccc(CNC(=O)Cc4cn5cc(-c6cnc(N)nc6)nc(N6CCOCC6)c5n4)cc3)cc2CC[C@@H]1C [Cpd 024, (S)-N-(4-(1-acetyl-2-methyl-1,2,3,4-tetrahydroquinolin-6-yl)benzyl)-2-(6-(2-aminopyrimidin-5-yl)-8-morpholinoimidazo[1,2-a]pyrazin-2-yl)acetamide] | > 500 nM
12 | CC(=O)N1c2ccc(-c3cccc(CNC(=O)Cc4cn5cc(-c6cnc(N)nc6)nc(N6CCOCC6)c5n4)c3)cc2CC[C@@H]1C [Cpd 025, (S)-N-(3-(1-acetyl-2-methyl-1,2,3,4-tetrahydroquinolin-6-yl)benzyl)-2-(6-(2-aminopyrimidin-5-yl)-8-morpholinoimidazo[1,2-a]pyrazin-2-yl)acetamide] | 100 to 500 nM
13 | CC(=O)N1c2ccc(-c3ccc(C(=O)N(C)CCN(C)C(=O)c4cn5cc(-c6cnc(N)nc6)nc(N6CCOCC6)c5n4)cc3)cc2CC[C@@H]1C [Cpd 036, (S)-N-(2-(4-(1-Acetyl-2-methyl-1,2,3,4-tetrahydroquinolin-6-yl)-N-methylbenzamido)ethyl)-6-(2-aminopyrimidin-5-yl)-N-methyl-8-morpholinoimidazo[1,2-a]pyrazine-2-carboxamide] | > 500 nM
14 | CC(=O)N1c2ccc(-c3ccc(CN(C)C(=O)c4cn5cc(-c6cnc(N)nc6)nc(N6CCOCC6)c5n4)cc3)cc2CC[C@@H]1C [Cpd 037, (S)-N-(4-(1-acetyl-2-methyl-1,2,3,4-tetrahydroquinolin-6-yl)benzyl)-6-(2-aminopyrimidin-5-yl)-N-methyl-8-morpholinoimidazo[1,2-a]pyrazine-2-carboxamide] | 100 to 500 nM
15 | CC(=O)N1c2ccc(-c3ccc(CN(C)C(=O)c4cc5nc(-c6cnc(N)nc6)nc(N6CCOCC6)c5s4)cc3)cc2CC[C@@H]1C [Cpd 038, (S)-N-(4-(1-acetyl-2-methyl-1,2,3,4-tetrahydroquinolin-6-yl)benzyl)-2-(2-aminopyrimidin-5-yl)-N-methyl-4-morpholinothieno[3,2-d]pyrimidine-6-carboxamide] | > 500 nM
16 | CC(=O)N1c2ccc(-c3ccc(CN(C)C(=O)c4sc5c(N6CCOCC6)nc(-c6cnc(N)nc6)nc5c4C)cc3)cc2CC[C@@H]1C [Cpd 039, (S)-N-(4-(1-acetyl-2-methyl-1,2,3,4-tetrahydroquinolin-6-yl)benzyl)-2-(2-aminopyrimidin-5-yl)-N,7-dimethyl-4-morpholinothieno[3,2-d]pyrimidine-6-carboxamide] | > 500 nM
17 | CC(=O)N1c2ccc(-c3ccc(C(=O)NCCCNC(=O)c4cc5nc(-c6cnc(N)nc6)nc(N6CCOCC6)c5s4)cc3)cc2CC[C@@H]1C [Cpd 040, (S)-N-(3-(4-(1-Acetyl-2-methyl-1,2,3,4-tetrahydroquinolin-6-yl)benzamido)propyl)-2-(2-aminopyrimidin-5-yl)-4-morpholinothieno[3,2-d]pyrimidine-6-carboxamide] | > 500 nM
18 | CC(=O)N1c2ccc(-c3ccc(C(=O)NCCCNC(=O)c4sc5c(N6CCOCC6)nc(-c6cnc(N)nc6)nc5c4C)cc3)cc2CC[C@@H]1C [Cpd 041, (S)-N-(3-(4-(1-Acetyl-2-methyl-1,2,3,4-tetrahydroquinolin-6-yl)benzamido)propyl)-2-(2-aminopyrimidin-5-yl)-7-methyl-4-morpholinothieno[3,2-d]pyrimidine-6-carboxamide] | > 500 nM
19 | CC(=O)N1c2ccc(-c3ccc(CN(C)Cc4cc5nc(-c6cnc(N)nc6)nc(N6CCOCC6)c5s4)cc3)cc2CC[C@@H]1C [Cpd 042, (S)-1-(6-(4-((((2-(2-Aminopyrimidin-5-yl)-4-morpholinothieno[3,2-d]pyrimidin-6-yl)methyl)(methyl)amino)methyl)phenyl)-2-methyl-3,4-dihydroquinolin-1(2H)-yl)ethan-1-one] | > 500 nM
20 | CC(=O)N1c2ccc(-c3ccc(CN(C)Cc4sc5c(N6CCOCC6)nc(-c6cnc(N)nc6)nc5c4C)cc3)cc2CC[C@@H]1C [Cpd 043, (S)-1-(6-(4-((((2-(2-aminopyrimidin-5-yl)-7-methyl-4-morpholinothieno[3,2-d]pyrimidin-6-yl)methyl)(methyl)amino)methyl)phenyl)-2-methyl-3,4-dihydroquinolin-1(2H)-yl)ethan-1-one] | > 500 nM
21 | CC(=O)N1c2ccc(-c3ccc(CCNC(=O)c4cn5cc(-c6cnc(N)nc6)nc(N6CCOCC6)c5n4)cc3)cc2CC[C@@H]1C [Cpd 044, (S)-N-(4-(1-acetyl-2-methyl-1,2,3,4-tetrahydroquinolin-6-yl)phenethyl)-6-(2-aminopyrimidin-5-yl)-8-morpholinoimidazo[1,2-a]pyrazine-2-carboxamide] | 100 to 500 nM
22 | CC(=O)N1c2ccc(-c3ccc(CCNC(=O)c4cc5nc(-c6cnc(N)nc6)nc(N6CCOCC6)c5s4)cc3)cc2CC[C@@H]1C [Cpd 045, (S)-N-(4-(1-acetyl-2-methyl-1,2,3,4-tetrahydroquinolin-6-yl)phenethyl)-2-(2-aminopyrimidin-5-yl)-4-morpholinothieno[3,2-d]pyrimidine-6-carboxamide] | ≤ 100 nM
23 | CC(=O)N1c2ccc(-c3ccc(CCNC(=O)c4sc5c(N6CCOCC6)nc(-c6cnc(N)nc6)nc5c4C)cc3)cc2CC[C@@H]1C [Cpd 046, (S)-N-(4-(1-acetyl-2-methyl-1,2,3,4-tetrahydroquinolin-6-yl)phenethyl)-2-(2-aminopyrimidin-5-yl)-7-methyl-4-morpholinothieno[3,2-d]pyrimidine-6-carboxamide] | 100 to 500 nM
24 | CC(=O)N1c2ccc(-c3ccc(NC(=O)CNC(=O)c4sc5c(N6CCOCC6)nc(-c6cnc(N)nc6)nc5c4C)cc3)cc2CC[C@@H]1C [Cpd 047, (S)-N-(2-((4-(1-acetyl-2-methyl-1,2,3,4-tetrahydroquinolin-6-yl)phenyl)amino)-2-oxoethyl)-2-(2-aminopyrimidin-5-yl)-7-methyl-4-morpholinothieno[3,2-d]pyrimidine-6-carboxamide] | > 500 nM
